Data published in patent publication US4859664A, “Derivatives of 2,3,4,5,6,7-hexahydro-2,7-methano-1,5-benzoxazonines and -1,4-benzoxazonines, processes for their production and their use as pharmaceuticals” (priority 1986, dated 1989).

Assays:
[1] = tonus reduction on striated musculature; format: in vivo, male NMRI mice
Method: (§1) For the pharmacological investigations described in the following, there were used male NMRI mice with a weight of from 15 to 30 g. The animals were kept under usual laboratory conditions, randomised and subjected to a light-dark change with a 12 hour rhythm. They were given a standard feed and water ad libitum up to the commencement of the experiments.
(§2) The test compounds were administered in a volume of 10 ml./kg./body weight per mouse. As carrier, there was used physiological sodium chloride solution or a suspension of 0.5% tragacanth in physiological sodium chloride solution.
6. Tonus reduction on striated musculature.
The test used is described by J. P. Chambon et al. (Arzneimittelforschung (Drug Research), 35 (II), (10), 1572/1985).
5 animals per dosage group were placed with their front paws on a horizontal metal rod (diameter 3 mm., length 20 cm.) which was fixed 30 cm. above a laboratory bench. Mice with normal muscle tonus climbed within 5 seconds on to the rod with at least one rear paw.
40, 80 and 120 minutes after the subcutaneous administration of the test compound, the animals were again tested for this ability and the number of incapable animals was recorded.

hot plate test = format: in vivo, male NMRI mice; conditions: Mus musculus, sc; plate 54° C.; 30 and 60 min; limits in brackets; read-out: ED50 (50% increase of the reaction time)
Method: as §1, §2
The experimental results are given as average values with a mean error of the average value (x±S.E.M.). The ED50 values were calculated according to Litchfield and Wilcoxon (J. Pharmacol. Exp. Ther., 96, 99/1949). The compounds were thereby tested in 4 dosages ([…]). […]
30 and 60 minutes after the subcutaneous administration of the test compounds, the experimental animals were placed on a metal plate, the surface temperature of which was kept constant at 54° C. The time was measured up to the commencement of a pain reaction (standing on the rear paws with licking and rubbing togeth4er of the front paws or jumping). In a preceding test, the average reaction time of the animals was determined from three measurements at intervals of, in each case, 15 minutes. […]

[2] = format: in vivo, male NMRI mice; conditions: s.c. increasing dosages over 2 days, naloxone i.p.; for % of reacting animals: 10 minutes
Method: (§3) […]. They were given a standard feed and water ad libitum up to the commencement of the experiments.
as §2
2. Development of dependency.
Withdrawal jumps of the mouse (see J. K. Saelens et al., Arch. Int. Pharmacodyn. Ther., 190, 213/1971).
Mice which were dependent upon morphine or other opiates react, when treated with morphine antagonists, with a flight reaction (see F. Huidobro and C. Maggiolo, Arch. Int. Pharmacodyn. Ther., 158, 97/1965); E. L. Way et al., Science, 162, 1290/1968). This flight reaction manifests itself in very vigorous jumping reactions which continue for about 10 minutes. From the number of reacting animals and especially from the jump frequency per animal, there can be deduced the strength of the withdrawal symptoms and thus the degree of dependency upon the test compound. Carrying out of the test:
The test and standard compounds were administered subcutaneously according to the scheme shown in the following Table III in increasing dosages over the course of 2 days.
For the provocation of the withdrawal jumps, the animals received intraperitoneally, 2 hours after the last compound administration, 30 mg./kg. naloxone hydrochloride.
Immediately after the administration of the naloxone, the animals were placed individually in a 5 liter glass beaker. Subsequently, the number of jump movements was recorded during the course of 10 minutes. For evaluation, the number of animals reacting the withdrawal jumps, as well as the average number of jumps per animal, was used.
The animals of the naloxone control group were, up to the administration of naloxone, treated with a 0.9% aqueous solution of sodium chloride (6 animals/dosage group).

[3] = influencing of the amphetamine group toxicity; format: in vivo, male NMRI mice
Method: as §3, §2
3. Influencing of the amphetamine group toxicity.
There was investigated the influence of the test compounds on the mortality of amphetamine-treated, aggregated mice. The dosaging of d-amphetamine was 15 mg./kg., which should permit the recognition not only of a synergism but also of an antagonism towards a sympathomimetic compound. Carrying out the experiment:
30 minutes after the subcutaneous administration of the test substance, the animals received subcutaneously 15 mg./kg. of d-amphetamine sulphate. The number of dead animals was recorded after 2, 4 and 7 hours. For the maintenance of the group size, the dead animals were replaced by untreated animals (6 animals/dosage group).

[4] = format: in vivo, male NMRI mice; conditions: ED50 p.o. / ED50 s.c.
Method: as §3, §2
The experimental results are given as average values with a mean error of the average value (x±S.E.M.). The ED50 values were calculated according to Litchfield and Wilcoxon (J. Pharmacol. Exp. Ther., 96, 99/1949). The compounds were thereby tested in 4 dosages (p≤0.5).
For the significance calculation, there was used Student's t test (see Angewandte Statistik, pub. Stringer Verlag, Berlin, Heidelberg, 242/1983), as well as the range sum test of Mann and Withney (Ann. Math. stat., 50, 1818/1947).
1.1. In the acetic acid writhing test (see R. Koster et al., Fed. proc., 18, 412/1954), the typical stretching movements referred to as "writhing", were produced by the intraperitoneal administration of a 0.6% acetic acid solution. 30 minutes previously, the substance to be tested was administered subcutaneously (s.c.) or orally ([…].) to the animals. 3 minutes after administration of the acetic acid solution, the total number of stretching movements in a period of time of 10 minutes was ascertained. From the decrease of the stretching reactions due to the action of the test compound in comparison with non-pretreated control groups, there was determined the percentage inhibition action.

[5] = testing for ataxia (rotating rod test); format: in vivo, male NMRI mice
Method: as §1, §2
There was used the rotating rod test (see F. Gross et al., Schweiz. Med. Wschr., 85, 305/1955).
5 animals per dosage group were trained to keep themselves on a horizontally rotating rod made of synthetic resin (16 rpm). 40, 80 and 120 minutes after the subcutaneous administration of the test compounds, the animals were again tested. From the number of animals which fell off prematurely, there was determined the disturbance of the movement coordination.

[6] = 25 mg/kg s.c. + d-amphetamine sulphate 15 mg./kg. s.c.
[7] = 50 mg/kg s.c. + d-amphetamine sulphate 15 mg./kg. s.c.

Row | Compound | muscle-relaxing action ([1]; 25 mg./kg. s.c.) | muscle-relaxing action ([1]; 50 mg./kg. s.c.) | ED50 (hot plate test) | average number of jumps/animal/10 minutes [2] | % of reacting animals [2] | % of deceased animals after 2 hrs. [3, 6] | % of deceased animals after 4 hrs. [3, 6] | % of deceased animals after 7 hrs. [3, 6] | % of deceased animals, total [3, 6] | % of deceased animals after 2 hrs. [3, 7] | % of deceased animals after 4 hrs. [3, 7] | % of deceased animals after 7 hrs. [3, 7] | % of deceased animals, total [3, 7] | quotient p.o./s.c. (of ED50) [4] | change of the maintenance time in % compared with the control group, after 40 min. ([5]; 25 mg/kg s.c.) | change of the maintenance time in % compared with the control group, after 80 min. ([5]; 25 mg/kg s.c.) | change of the maintenance time in % compared with the control group, after 120 min. ([5]; 25 mg/kg s.c.) | change of the maintenance time in % compared with the control group, after 40 min. ([5]; 50 mg/kg s.c.) | change of the maintenance time in % compared with the control group, after 80 min. ([5]; 50 mg/kg s.c.) | change of the maintenance time in % compared with the control group, after 120 min. ([5]; 50 mg/kg s.c.)
1 | CC12CCNCC(C1)c1ccccc1O2 (stereo not shown) [Example 6, 2,3,4,5,6,7-hexahydro-2-methyl-2,7-methano-1,5-benzoxazonine] | 13% | 20% | 13.8 mg/kg | 0 | 0% | 0% | 0% | 16.7% | 16.7% | 0% | 16.7% | 0% | 16.7% | 1.65 | 0% | -8% | 0% | -17% | 0% | -8%
2 | CC1NCCC2(C)CC1c1ccccc1O2 (stereo not shown) [Example 9, 2,3,4,5,6,7-hexahydro-2,6-dimethyl-2,7-methano-1,5-benzoxazonine] | 13% | 20% | 12 mg/kg | 0 | 0% | 16.7% | 0% | 0% | 16.7% | 0% | 0% | 33.3% | 33.3% | 1.45 | -13% | -17% | -12% | 0% | 0% | -2%
